This passage reports EC50 and CC50 results from US8673929B2, “4,6-di- and 2,4,6-trisubstituted quinazoline derivatives and pharmaceutical compositions useful for treating viral infections” (priority 2006, dated 2014).

For one data set, the target named is HCV replicon. In words: Anti-HCV replicon assay, EC50 (luciferase readout). It counts as cell-based. As to conditions: Huh-7 HCV replicon cells, 3 days incubation, luciferase luminescence. The essentials: (§1)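 Huh-7 cells harbouring an HCV replicon (6000/well) incubated 3 days at 37° C with 3-fold serially diluted compound (0.5% DMSO final where used). EC50 from luciferase luminescence of lysed cells; CC50 from CellTiter-Glo luminescence in parallel plates.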
(A replicon is a self-replicating genome or part of one, used to study replication in cells.)

A further data set concerns Huh-7 HCV replicon cells. In words: CC50 assay in the anti-HCV replicon assay (CellTiter-Glo). It counts as cell-based, human. To be noted: 3 days incubation, CellTiter-Glo luminescence. In short, it runs like this: as §1
Assay in data set [1]: as above
It counts as cell-based, human. To be noted: human, Huh-7 hepatoma cells harbouring an HCV replicon; Huh-7 HCV replicon cells, 3 days incubation, CellTiter-Glo luminescence. The essentials:
as §1

One may read the EC50 as the concentration at which the effect is half-maximal. Broadly, the CC50 is the concentration giving 50% cytotoxicity. Take `CONC(=O)c1ccc(-c2ccc3nc(N)nc(OCC4CC4)c3c2)cc1` [Example 136]: the EC50 on HCV replicon was in the range of 0.3 to 1 µM. This molecule showed a cytotoxic concentration (CC50) in the data set on Huh-7 HCV replicon cells of 10 to 20 µM.

`CCOc1nc(N)nc2ccc(-c3ccc(C(=O)N4CCCCC4)cc3)cc12` [Example 148, [4-(2-amino-4-ethoxy-quinazolin-6-yl)-pheny]-piperidin-1-yl-methanone]: the EC50 at HCV replicon is 1 to 10 µM. The half-maximal cytotoxic concentration (CC50) with Huh-7 HCV replicon cells is > 20 µM.

As for `Nc1nc(OCCN2CCOCC2)c2cc(-c3cccc(F)c3F)ccc2n1` [Example 243, 6-(2,3-Difluoro-phenyl)-4-(2-morpholin-4-yl-ethoxy)-quinazolin-2-ylamine], in the data set with HCV replicon (Hepatitis C virus, 72 h), the EC50 lay in the range of 1 to 10 µM. Moreover, in data set [1], the CC50 at 3 days was > 20 µM.

`CC(C)Oc1ncnc2ccc(-c3ccsc3)cc12` [Example 244, 4-isopropoxy-6-thiophen-3-yl-quinazoline] gave an EC50 with HCV replicon (Hepatitis C virus, 72 h) of 1 to 10 µM. Further, the CC50 at 3 days in data set [1] is > 20 µM.

Molecule `CNC(=O)c1ccc(-c2ccc3ncnc(OC(C)C)c3c2)cc1` [Example 245, 4-(4-Isopropoxy-quinazolin-6-yl)-N-methyl-benzamide] had an EC50 in the data set on HCV replicon (Hepatitis C virus, 72 h) of 1 to 10 µM. In addition, the cytotoxic concentration (CC50) at 3 days in data set [1] is > 20 µM.

`CC(C)Oc1ncnc2ccc(-c3ccc(F)cc3)cc12` [Example 248, 6-(4-Fluorophenyl)-4-isopropoxy-quinazoline] displayed an EC50 in the data set on HCV replicon (Hepatitis C virus, 72 h) of 1 to 10 µM. In addition, the 50% cytotoxic concentration (CC50) at 3 days in data set [1] was > 20 µM.

Take `CN(C)CCNC(=O)c1ccc(-c2ccc3nc(NCc4ccc(F)cc4)nc(O[C@H]4CCOC4)c3c2)cc1` [Example 249, (S)-4-(2-(4-fluorobenzylamino)-4-(tetrahydrofuran-3-yloxy)quinazolin-6-yl)-N-(2-(dimethylamino)ethyl)benzamide]: in the data set with HCV replicon (Hepatitis C virus, 72 h), the EC50 was < 0.3 µM. In data set [1], the CC50 at 3 days was < 10 µM.

Regarding `CCOc1nc(NCc2ccc(S(N)(=O)=O)cc2)nc2ccc(-c3ccc(F)cc3)cc12` [Example 250, 4-{[4-Ethoxy-6-(4-fluoro-phenyl)-quinazolin-2-ylamino]-methyl}-benzenesulfonamide], the EC50 in the data set with HCV replicon (Hepatitis C virus, 72 h) lay in the range of 1 to 10 µM. Besides, the CC50 at 3 days in data set [1] is < 10 µM.

For `CCOc1nc(NCc2ccc(S(N)(=O)=O)cc2)nc2ccc(-c3ccc(F)c(NS(=O)(=O)C4CC4)c3)cc12` [Example 251, 4-{[6-(3-Cyclopropanesulfonylamino-4-fluoro-phenyl)-4-ethoxy-quinazolin-2-ylamino]-methyl}-benzenesulfonamide], the EC50 in the data set with HCV replicon (Hepatitis C virus, 72 h) is < 0.3 µM. Also, the CC50 at 3 days in data set [1] was < 10 µM.

On to `CCOc1nc(NCc2ccc(S(N)(=O)=O)cc2)nc2ccc(-c3cccc(S(N)(=O)=O)c3)cc12` [Example 252, 4-{[6-(3-aminosulfonyl-phenyl)-4-ethoxy-quinazolin-2-ylamino]-methyl}-benzenesulfonamide], for which, in the data set on HCV replicon (Hepatitis C virus, 72 h), the 50% effective concentration (EC50) was < 0.3 µM. Further, in data set [1], the CC50 at 3 days was < 10 µM.

Take `CCOc1nc(NCc2ccc(S(N)(=O)=O)cc2)nc2ccc(-c3ccc(NC(=O)N4CCCC4)cc3)cc12` [Example 253, pyrrolidine-1-carboxylic acid {4-[4-ethoxy-2-(4-sulfamoyl-benzylamino)-quinazolin-6-yl]-phenyl}-amide]: the EC50 in the data set on HCV replicon (Hepatitis C virus, 72 h) is < 0.3 µM. Besides, the CC50 at 3 days in data set [1] fell in the range of 10 to 20 µM.

In the case of `CCOc1nc(NCc2ccc(S(N)(=O)=O)cc2)nc2ccc(-c3ccc(NC(N)=O)cc3)cc12` [Example 254, 4-{[4-ethoxy-6-(4-ureido-phenyl)-quinazolin-2-ylamino]-methyl}-benzenesulfonamide], the EC50 with HCV replicon (Hepatitis C virus, 72 h) is < 0.3 µM. In addition, in data set [1], the 50% cytotoxic concentration (CC50) at 3 days was < 10 µM.

As to `CCOc1nc(NCc2ccc(S(N)(=O)=O)cc2)nc2ccc(-c3ccc(C(N)=O)cc3)cc12` [Example 255, 4-[4-Ethoxy-2-(4-sulfamoyl-benzylamino)-quinazolin-6-yl]-benzamide], in the data set on HCV replicon (Hepatitis C virus, 72 h), the EC50 was < 0.3 µM. The CC50 at 3 days in data set [1] was < 10 µM.

For `CCCc1ncnc2ccc(-c3ccc(F)cc3)cc12` [Example 259, 6-(4-Fluoro-phenyl)-4-propyl-quinazoline], the concentration for a half-maximal effect (EC50) in the data set on HCV replicon (Hepatitis C virus, 72 h) lay within 1 to 10 µM. For the same molecule, the CC50 at 3 days in data set [1] was > 20 µM.
